Data taken from patent publication US12576169B2, “Silicon-fluoride acceptor substituted radiopharmaceuticals and precursors thereof” (Technische Universität München, priority 2019, dated 2026).
Like-named read-outs stand apart in the source and are kept apart here. *1 amine or outer side, *2 acyl side, *3 side chain or, on linkers, in order; H or OH if unused. Where a SMILES comes first, the peptide text is derived from it. Side-chain parts run from the residue outwards. [ ]: non-standard residue; d: D form. The star is where a group is joined. X1 = O=C(O)CC[C@H](NC(=O)N[C@@H](CCC(=O)N[C@H](CCCN*)C(=O)O)C(=O)O)C(=O)O; Benzoyl(4-SiFtBu2) = CC(C)(C)[Si](F)(c1ccc(C(=O)*)cc1)C(C)(C)C; γGlu = O=C(O)[C@H](CCC(=O)[*:2])N[*:1]; dCit = NC(=O)NCCC[C@@H](N)C(=O)O; Suc = O=C(CCC(=O)[*:2])[*:1]; dOrn = NCCC[C@@H](N)C(=O)O; dDap = NC[C@@H](N)C(=O)O; CO = O=C([*:1])[*:2]

What was measured:
[1] = tested on: LNCaP cells; assay: Internalization of 18F-labeled ligands into LNCaP cells; format: cell-based, human; conditions: internalized activity at 1 h in % of reference [125I]XII; c = 0.5 nM; LNCaP cells (125.000 cells/well); 37° C., DMEM/F-12 add. 5% BSA; corrected for non-specific binding (10 μm PMPA); mean ± SD (n = 3)
Method: LNCaP cells were grown in DMEM/F-12 (add. 10% FCS, v/v) and maintained at 37° C. in a humidified 5% CO2 atmosphere. […] Subsequent to the removal of the culture medium, cells were washed with DMEM-F12 (add. 5% BSA, v/v, 500 μL) and left to equilibrate in DMEM-F12 (add. 5% BSA, v/v, 200 μL) at 37° C. for 15 min. Each well was treated with either DMEM-F12 (add. 5% BSA, v/v, 25 μL) or a 2-(phosphonomethyl)-pentandioic acid (PMPA) solution (100 μM in PBS, 25 μL) for blockade. Afterwards, the ^18F-labeled SiFA-PSMA ligand (5 nM in PBS, 25 μL) was added and the cells were incubated for 1 h at 37° C. The experiment was terminated by placing the 24-well plate on ice for 3 min and removal of the assay medium. Each well was rinsed with HBSS (4° C., 250 μL) and the fractions were combined with the previous assay medium, representing the amount of unbound radioligand. For removal of surface bound activity, LNCaP cells were incubated with PMPA solution (10 μM in PBS, 4° C., 250 μL) for 5 min and rinsed again with PBS (250 μL, 4° C.). The internalized activity was determined by incubation of LNCaP cells with 1 M aq. NaOH (250 μL) for at least 10 min and combination with the fraction of a subsequent wash step with 1 M aq. NaOH (200 μL). Each experiment (control and blockade) was performed in triplicate. […] All internalization studies were accompanied by reference studies using the reference compound XII (2 nM in HBSS add. 1% BSA, v/v), which were performed analogously. Data were corrected for non-specific internalization and normalized to the specific-internalization observed for the radioiodinated reference compound.

[2] = n-Octanol-PBS partition coefficient (logD7.4); format: physicochemical; conditions: 18F-labeled ligand; n-octanol/PBS pH=7.4; mean ± SD (n = 5)
Method: Approx. 0.5 MBq of the ^18F-labeled SiFA-PSMA ligand were added into a test tube containing n-octanol (500 μL) and PBS (500 μL, pH=7.4). After vigorously shaking the two-phase mixture for 3 min at rt, the test tube was centrifuged at 9.000 rpm for 5 min to achieve quantitative phase separation. Finally, 150 μL of each layer were pipetted off and measured for activity using a gamma counter. After repeating the experiment for at least five times, the n-octanol-PBS partition coefficient log D7.4 was calculated according to following formula.

[3] = target: PSMA (Homo sapiens, UniProt Q04609); assay: IC50 determination: PSMA binding affinity, competition with [125I]XII on LNCaP cells
Method: LNCaP cells were grown in Dulbecco's Modified Eagle Medium/Nutrient Mixture F-12 (DMEM/F-12, add. 10% fetal calf serum (FCS), v/v) and maintained at 37° C. in a humidified 5% CO2 atmosphere. […] After removal of the culture medium, LNCaP cells were treated with HBSS (add. 1% BSA, v/v, 4° C., 500 μL) and subsequently left 15 min on ice for equilibration in HBSS (add. 1% BSA, v/v, 4° C., 200 μL). […] For the control series, HBSS (add. 1% BSA, v/v, 25 μL) was used instead of the SiFA-PSMA ligand solution. Each concentration and the control were prepared in triplicate. After 1 h incubation on ice, the assay medium was removed and cells were washed with HBSS (200 μL, 4° C.). […] NaOH (200 μL) for at least 10 min and the resulting cell lysate was removed. The wells were treated again with 1 M aq. […] The experiment was repeated for at least three times and the IC50 value calculated using the GraphPad PRISM 8.0.2 software (Graphpad Software Inc., La Jolla, United States).

[4] = target: T1, human serum albumin (HSA) (Homo sapiens, UniProt P02768); assay: Binding to HSA on a Chiralpak HSA column; format: in vitro ADME; conditions: calibration with nine reference substances
T1 construct: purchased H13H-2433
Method: For the determination of human serum albumin (HSA) binding, a Chiralpak HSA column (50×3 mm, 5 μm, H13H-2433) was used at a constant flow rate of 0.5 mL/min. The mobile phase composed of a 50 mM NH4OAc solution in water with pH=7 (solvent C) and isopropanol (solvent D) was freshly prepared for each experiment and used only once. The reference substances (Table 1) as well as the analyzed SiFA-PSMA ligands were dissolved in a mixture of solvent C/solvent D (1:1, v/v, 0.5 mg/mL) and eluted from the HSA column (0-3 min: 100% C, 3-20 min: 20% D in C, λ=254 nm). The column was kept at rt and each run was stopped after detection of the signal to reduce the acquisition time. The nine reference substances display an HSA binding range of 13% to 99% and were injected consecutively in order to establish a sigmoidal calibration curve with the software OriginPro 2018b (FIG. 1).

[5] = LNCaP cells (150.000 cells/well), reference [125I]XII c = 0.2 nM, 1 h, 4° C., HBSS add. 1% BSA, mean ± SD (n = 3)

T1 sequence (P02768 25-609): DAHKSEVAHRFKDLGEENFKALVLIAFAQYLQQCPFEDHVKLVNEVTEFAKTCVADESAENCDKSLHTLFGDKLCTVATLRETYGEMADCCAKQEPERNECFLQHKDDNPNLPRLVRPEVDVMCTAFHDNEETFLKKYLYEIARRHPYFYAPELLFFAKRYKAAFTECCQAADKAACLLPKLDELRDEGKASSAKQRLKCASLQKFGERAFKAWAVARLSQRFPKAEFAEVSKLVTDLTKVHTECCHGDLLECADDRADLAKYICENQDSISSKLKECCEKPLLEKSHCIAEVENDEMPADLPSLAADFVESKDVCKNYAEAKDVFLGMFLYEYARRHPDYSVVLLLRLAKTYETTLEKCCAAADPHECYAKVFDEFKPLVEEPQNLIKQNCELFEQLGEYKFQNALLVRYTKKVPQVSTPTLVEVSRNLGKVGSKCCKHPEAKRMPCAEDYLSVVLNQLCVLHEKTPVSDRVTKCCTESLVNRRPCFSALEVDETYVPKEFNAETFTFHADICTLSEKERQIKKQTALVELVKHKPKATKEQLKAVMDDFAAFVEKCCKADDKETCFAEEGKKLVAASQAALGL
PSMA, sequence (Q04609 whole entry): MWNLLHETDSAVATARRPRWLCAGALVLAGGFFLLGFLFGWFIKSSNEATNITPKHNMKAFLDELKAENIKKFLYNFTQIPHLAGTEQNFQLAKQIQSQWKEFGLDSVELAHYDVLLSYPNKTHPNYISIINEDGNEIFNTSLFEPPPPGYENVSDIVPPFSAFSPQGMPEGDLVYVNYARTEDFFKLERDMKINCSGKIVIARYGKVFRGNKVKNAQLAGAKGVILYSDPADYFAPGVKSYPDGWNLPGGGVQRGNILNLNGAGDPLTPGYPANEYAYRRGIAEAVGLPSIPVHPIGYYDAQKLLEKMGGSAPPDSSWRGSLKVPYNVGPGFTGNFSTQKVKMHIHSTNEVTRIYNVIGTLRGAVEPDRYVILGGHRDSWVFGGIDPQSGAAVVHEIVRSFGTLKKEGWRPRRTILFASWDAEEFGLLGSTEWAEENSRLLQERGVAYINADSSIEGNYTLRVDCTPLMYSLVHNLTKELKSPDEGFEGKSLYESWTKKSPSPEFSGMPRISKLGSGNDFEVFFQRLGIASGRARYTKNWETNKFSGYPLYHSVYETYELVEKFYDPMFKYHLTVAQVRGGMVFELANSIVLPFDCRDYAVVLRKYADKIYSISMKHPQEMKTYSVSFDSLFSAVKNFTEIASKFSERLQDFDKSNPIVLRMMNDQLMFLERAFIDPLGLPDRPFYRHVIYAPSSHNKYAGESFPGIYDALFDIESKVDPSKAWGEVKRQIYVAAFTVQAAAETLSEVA

SMILES	Internalization [1] [%]	logD7.4 [2]	IC50 [3] [nM]	Binding to HSA [4] [%]	IC50 [3, 5] [nM]
CC(C)(C)[Si](F)(c1ccc(C(=O)NC[C@@H](NC(=O)CCCCCNC(=O)CC[C@@H](NC(=O)N[C@H](CCC(=O)O)C(=O)O)C(=O)O)C(=O)N[C@H](CCCCNC(=O)CCC(=O)NCCC[C@@H](NC(=O)CC[C@H](NC(=O)N[C@@H](CCC(=O)O)C(=O)O)C(=O)O)C(=O)O)C(=O)O)cc1)C(C)(C)C [SiFA-PSMA ligand 02 d]	119.56 ± 5.84	−3.24 ± 0.03	9.9 ± 0.8	≥98.9	–
CC(C)(C)[Si](F)(c1ccc(C(=O)NC[C@@H](NC(=O)CNC(=O)CNC(=O)CNC(=O)CC[C@H](NC(=O)N[C@@H](CCC(=O)O)C(=O)O)C(=O)O)C(=O)N[C@H](CCCCNC(=O)CCC(=O)NCCC[C@@H](NC(=O)CC[C@H](NC(=O)N[C@@H](CCC(=O)O)C(=O)O)C(=O)O)C(=O)O)C(=O)O)cc1)C(C)(C)C [SiFA-PSMA ligand 02 e] ({Glu-CO-γGlu}-GGG[dDap](Benzoyl(4-SiFtBu2))[dK]([Suc-X1])-OH)	190.26 ± 16.87	−3.50 ± 0.04	9 ± 2.2	≥98.9	–
CC(C)(C)[Si](F)(c1ccc(C(=O)NC[C@@H](NC(=O)[C@@H](CC(=O)O)NC(=O)[C@@H](CCC(=O)O)NC(=O)[C@H](N)CCC(=O)O)C(=O)N[C@H](CCCCNC(=O)CCC(=O)NCCC[C@@H](NC(=O)CC[C@H](NC(=O)N[C@@H](CCC(=O)O)C(=O)O)C(=O)O)C(=O)O)C(=O)O)cc1)C(C)(C)C [SiFA-PSMA ligand 03 a] (H-[dE][dE][dD][dDap](Benzoyl(4-SiFtBu2))[dK]([Suc-X1])-OH)	135.74 ± 6.70	−3.80 ± 0.06	–	98.8	9.3 ± 1.7
CC(C)(C)[Si](F)(c1ccc(C(=O)NC[C@@H](NC(=O)[C@@H](CCC(=O)O)NC(=O)[C@@H](CCC(=O)O)NC(=O)[C@H](N)CCC(=O)O)C(=O)N[C@H](CCCCNC(=O)CCC(=O)NCCC[C@@H](NC(=O)CC[C@H](NC(=O)N[C@@H](CCC(=O)O)C(=O)O)C(=O)O)C(=O)O)C(=O)O)cc1)C(C)(C)C [SiFA-PSMA ligand 03 b] (H-[dE][dE][dE][dDap](Benzoyl(4-SiFtBu2))[dK]([Suc-X1])-OH)	135.78 ± 5.50	−3.85 ± 0.04	–	98.9	8.8 ± 1
CC(C)(C)[Si](F)(c1ccc(C(=O)NC[C@@H](NC(=O)[C@@H](CCCNC(N)=O)NC(=O)[C@@H](CCC(=O)O)NC(=O)[C@H](N)CCC(=O)O)C(=O)N[C@H](CCCCNC(=O)CCC(=O)NCCC[C@@H](NC(=O)CC[C@H](NC(=O)N[C@@H](CCC(=O)O)C(=O)O)C(=O)O)C(=O)O)C(=O)O)cc1)C(C)(C)C [SiFA-PSMA ligand 03 c] (H-[dE][dE][dCit][dDap](Benzoyl(4-SiFtBu2))[dK]([Suc-X1])-OH)	87.55 ± 2.28	−3.31 ± 0.02	–	98.6	11.7 ± 1.5
CC(C)(C)[Si](F)(c1ccc(C(=O)NC[C@@H](NC(=O)[C@@H](CN)NC(=O)[C@@H](CCC(=O)O)NC(=O)[C@H](N)CCC(=O)O)C(=O)N[C@H](CCCCNC(=O)CCC(=O)NCCC[C@@H](NC(=O)CC[C@H](NC(=O)N[C@@H](CCC(=O)O)C(=O)O)C(=O)O)C(=O)O)C(=O)O)cc1)C(C)(C)C [SiFA-PSMA ligand 03 d] (H-[dE][dE][dDap][dDap](Benzoyl(4-SiFtBu2))[dK]([Suc-X1])-OH)	171.82 ± 9.57	−3.42 ± 0.05	–	97.2	9.1 ± 0.8
CC(C)(C)[Si](F)(c1ccc(C(=O)NC[C@@H](NC(=O)[C@@H](CCCN)NC(=O)[C@@H](CCC(=O)O)NC(=O)[C@H](N)CCC(=O)O)C(=O)N[C@H](CCCCNC(=O)CCC(=O)NCCC[C@@H](NC(=O)CC[C@H](NC(=O)N[C@@H](CCC(=O)O)C(=O)O)C(=O)O)C(=O)O)C(=O)O)cc1)C(C)(C)C [SiFA-PSMA ligand 03 e] (H-[dE][dE][dOrn][dDap](Benzoyl(4-SiFtBu2))[dK]([Suc-X1])-OH)	111.98 ± 3.90	−3.40 ± 0.17	–	97.5	8.5 ± 1.2
CC(C)(C)[Si](F)(c1ccc(C(=O)NC[C@@H](NC(=O)[C@@H](CCCCN)NC(=O)[C@@H](CCC(=O)O)NC(=O)[C@H](N)CCC(=O)O)C(=O)N[C@H](CCCCNC(=O)CCC(=O)NCCC[C@@H](NC(=O)CC[C@H](NC(=O)N[C@@H](CCC(=O)O)C(=O)O)C(=O)O)C(=O)O)C(=O)O)cc1)C(C)(C)C [SiFA-PSMA ligand 03 f] (H-[dE][dE][dK][dDap](Benzoyl(4-SiFtBu2))[dK]([Suc-X1])-OH)	94.24 ± 6.01	−3.43 ± 0.02	–	96.9	6.9 ± 1
CC(C)(C)[Si](F)(c1ccc(C(=O)NC[C@@H](NC(=O)CNC(=O)[C@@H](CCC(=O)O)NC(=O)[C@H](N)CCC(=O)O)C(=O)N[C@H](CCCCNC(=O)CCC(=O)NCCC[C@@H](NC(=O)CC[C@H](NC(=O)N[C@@H](CCC(=O)O)C(=O)O)C(=O)O)C(=O)O)C(=O)O)cc1)C(C)(C)C [SiFA-PSMA ligand 03 g]	121.44 ± 3.72	−3.56 ± 0.04	–	98.4	11.9 ± 2
C[C@H](O)[C@@H](NC(=O)[C@@H](CCC(=O)O)NC(=O)[C@H](N)CCC(=O)O)C(=O)N[C@H](CNC(=O)c1ccc([Si](F)(C(C)(C)C)C(C)(C)C)cc1)C(=O)N[C@H](CCCCNC(=O)CCC(=O)NCCC[C@@H](NC(=O)CC[C@H](NC(=O)N[C@@H](CCC(=O)O)C(=O)O)C(=O)O)C(=O)O)C(=O)O [SiFA-PSMA ligand 03 h] (H-[dE][dE][dT][dDap](Benzoyl(4-SiFtBu2))[dK]([Suc-X1])-OH)	107.42 ± 3.66	−3.66 ± 0.03	–	97.8	10.7 ± 2.1
CC(C)(C)[Si](F)(c1ccc(C(=O)NC[C@@H](NC(=O)[C@@H](Cc2ccccc2)NC(=O)[C@@H](CCC(=O)O)NC(=O)[C@H](N)CCC(=O)O)C(=O)N[C@H](CCCCNC(=O)CCC(=O)NCCC[C@@H](NC(=O)CC[C@H](NC(=O)N[C@@H](CCC(=O)O)C(=O)O)C(=O)O)C(=O)O)C(=O)O)cc1)C(C)(C)C [SiFA-PSMA ligand 03 i] (H-[dE][dE][dF][dDap](Benzoyl(4-SiFtBu2))[dK]([Suc-X1])-OH)	50.33 ± 2.97	−2.30 ± 0.03	–	98.9	20.6 ± 1.8
CC(C)(C)[Si](F)(c1ccc(C(=O)NC[C@@H](NC(=O)[C@H](N)CNC(=O)[C@@H](CCC(=O)O)NC(=O)[C@H](N)CCC(=O)O)C(=O)N[C@H](CCCCNC(=O)CCC(=O)NCCC[C@@H](NC(=O)CC[C@H](NC(=O)N[C@@H](CCC(=O)O)C(=O)O)C(=O)O)C(=O)O)C(=O)O)cc1)C(C)(C)C [SiFA-PSMA ligand 04]	124.49 ± 2.61	−3.33 ± 0.11	12.2 ± 1.9	97.9	–
CC(C)(C)[Si](F)(c1ccc(C(=O)NC[C@@H](NC(=O)[C@@H](CCCNC(N)=O)NC(=O)[C@@H](CCCNC(N)=O)NC(=O)[C@H](N)CCCNC(N)=O)C(=O)N[C@H](CCCCNC(=O)CCC(=O)NCCC[C@@H](NC(=O)CC[C@H](NC(=O)N[C@@H](CCC(=O)O)C(=O)O)C(=O)O)C(=O)O)C(=O)O)cc1)C(C)(C)C [SiFA-PSMA ligand 05] (H-[dCit][dCit][dCit][dDap](Benzoyl(4-SiFtBu2))[dK]([Suc-X1])-OH)	90.13 ± 6.13	−3.17 ± 0.02	16.2 ± 2	95.7	–
